Results taken from PubChem BioAssay AID179 (DTP/NCI, 2004).
Active and inactive are the calls of the source.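 How the source made its calls: active means compounds giving half or more protection of infected cells from virus-caused growth loss, again on retest; inactive means the rest.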

System: CEM cells HIV-1 protection, formazan growth assay
Assay: NCI AIDS Antiviral Assay
Conditions: for IC50: measured here: growth of uninfected CEM cells
How it was run: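 Human CEM cells, uninfected and HIV-1-infected, received five drug concentrations, and growth was read by soluble formazan assay. Compounds giving at least 50% protection were retested; reproducible 100% protection defined confirmed active.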

| Structure (SMILES) | EC50 [µM] | IC50 [µM] | outcome |
| --- | --- | --- | --- |
| CN(C)c1ccc(C2N(C)CCN2C)cc1 | > 200 | > 200 | – |
| COC(=O)c1ccc(S)c(S(=O)(=O)Nc2n[nH]c(N)n2)c1 | > 200 | > 200 | – |
| CN(C)Cc1cc(/C=C/C(=O)c2ccc(Cl)c(Cl)c2)cc(CN(C)C)c1O | > 151 | 6.31 | – |
| ClCc1nn(-c2ccccc2)c(CCl)c1CCl | > 200 | 1.23 | – |
| Nc1nc(Cl)cc(NCC2(CO)CC(O)C2)n1 (stereo not given) | > 200 | > 200 | – |
| COC(=O)C1=C2c3ccccc3-c3ccccc3C2(O)C(C(=O)OC)C1=O (stereo not given) | > 1.45 | > 1.45 | – |
| O=C(O)C1=CC(=C(c2ccc(O)c(C(=O)O)c2)c2ccc(O)c(C(=O)O)c2)C=C(Cc2ccc(O)c(C(=O)O)c2)C1=O | > 1200 | 195 | – |
| COc1ccc2nc3ccccc3c(NCCN(C)CCCl)c2c1 | > 20 | 1.32 | – |
| CC(C)OP(=O)(OC(C)C)C(=NCCN=C(NNc1ccccc1[N+](=O)[O-])P(=O)(OC(C)C)OC(C)C)NNc1ccccc1[N+](=O)[O-] | > 13.8 | > 13.8 | – |
| CC1=C(N(C)C)C(=O)c2nc3n(c2C1=O)CCC3OC(N)=O (stereo not given) | > 200 | 11.2 | – |
| COc1ccc(C(O)C(C)C(O)(C(F)(F)F)C(F)(F)F)cc1 (stereo not given) | > 200 | 95.5 | – |
| CC(=O)NC1C(OCc2ccccc2)OC(CO)C(O)C1OC(C)C(=O)NC(C)C(=O)NC(CCC(=O)NCCCNc1c2ccccc2nc2cccc([N+](=O)[O-])c12)C(N)=O (stereo not given) | > 100 | 1.15 | – |
| Cc1nc(-n2nc(-c3ccccc3)cc2-c2ccccc2)sc1C(=O)CC(=O)C(=O)Nc1ccc(Cl)c(Cl)c1 | > 45.7 | > 45.7 | – |
| COc1ccc(-c2cc(=O)c3c(O)cc(O)cc3o2)cc1Oc1ccc(-c2cc(=O)c3c(O)cc(O)cc3o2)cc1 | > 200 | 2.69 | – |
| COc1ccc2cc1Oc1ccc(cc1)C[C@H]1NCCc3cc(OC)c(cc31)Oc1c(O)c(OC)cc3c1CCN(C)C3C2 (stereo not given in full) | – | – | inactive |
| Nc1[nH]c(=S)[nH]c(=O)c1N=O | > 200 | > 200 | – |
| Cc1cc(OCC(O)CO)ccc1Cl (stereo not given) | > 1150 | 550 | – |

| Structure (SMILES) | EC50 [µM] | IC50 [µM] | outcome |
| --- | --- | --- | --- |
| CCCN(CCCN)/[N+]([O-])=N\O | > 8910 | 1580 | – |
| Cc1ccc(S(=O)(=O)Nn2c(O)c(C#N)c(-c3ccc(Cl)cc3)c(C#N)c2=O)cc1 | > 200 | > 200 | – |
| C[CH2][Sn]([CH2]C)([O]C(=O)c1cccc(F)c1)[O][Sn]([CH2]C)([CH2]C)[O]C(=O)c1cccc(F)c1 | > 5.89 | > 5.89 | – |
| O=C(O)/C=C\C(=O)Nc1ccccc1O | > 200 | > 200 | – |
| Cc1cc(C)nc(NC(=S)Nc2ccc(Cl)cc2)c1 | > 100 | > 100 | – |
| O=C(CCn1[nH]c(=O)c(Cl)c(Cl)c1=O)NO | > 933 | 832 | – |
| CCN(CC)C1Oc2cc3c(cc2C(c2cccc(OC)c2O)C1C)OCO3 (stereo not given) | > 200 | 3.8 | – |
| COC1CC(C)(N)C(O)C(C)O1 (stereo not given) | > 200 | > 200 | – |
| CCCC1C(=O)Nc2cccc3ncn(c23)C1=O (stereo not given) | > 200 | 186 | – |
| Cc1c(/C=N/N=C/c2[nH]c(C(=O)OC(C)(C)C)c(C)c2C)[nH]c(C(=O)OC(C)(C)C)c1C | – | – | inactive |
| CCOc1cc(/C=C/c2c(C#N)c(=O)oc3ccc(C)cc23)ccc1O | > 25.1 | 4.47 | – |
| C/C(=N/NC(=O)c1ccncc1)c1ccc(NC(=O)C(=O)Nn2c(=S)[nH]c3ccccc3c2=O)cc1 | > 51.3 | > 51.3 | – |
| COC(=O)c1ccccc1NC(=O)C(=O)NNC(=O)c1ccncc1 | > 275 | > 275 | – |
| c1csc(-c2nc3sc(-c4cccs4)nc3s2)c1 | – | – | inactive |
| CC1(C)SCCCCCCCSC(C)(C)SCCCCCCCS1 | > 63.1 | > 63.1 | – |
| Cc1cc(C)c(C#N)c(SSC(Cl)(Cl)Cl)n1 | > 200 | 32.4 | – |
| CSc1nc(C)c(CCOC(C)=O)c(Cl)n1 | > 200 | > 200 | – |
